Reference: US20160213742A1, “COMPOSITIONS AND METHODS FOR THE TREATMENT OF FUNGAL INFECTIONS” (priority 2013, published 2016)
Values after ≈ are worked out from the molar mass of the structure shown. Like-named read-outs stand apart in the source and are kept apart here.

Experiments:
Format in all cases: cell-based
C. krusei ATCC 14243 = assay: microbe, parasite or virus in culture
Description: (§1) The test organisms consisted of strains from the Micromyx collection. Reference isolates were originally received from the American Type Culture Collection (ATCC; Manassas, Va.). Organisms received at Micromyx were initially streaked for isolation on Sabouraud dextrose or potato dextrose agar. Colonies were picked by swab from the medium and resuspended in the appropriate broth containing cryoprotectant. The suspensions were aliquoted into cryogenic vials and maintained at −80° C. Prior to testing, Candida isolates were streaked from the frozen vials on Sabouraud dextrose agar. The yeast isolates were incubated at overnight at 35° C. before use. The fungal isolates were incubated at least 7 days on Sabouraud dextrose agar slants at 35° C. before harvesting.
(§2) Isolates were tested in RPMI medium (Catalog No. SH30011.04; Lot No. AWA92121B; HyClone Labs, Logan, Utah) which was prepared according to CLSI guidelines. The pH of the medium was adjusted to 7.0 with 1 N NaOH. The medium was sterile filtered using a 0.2 μm PES filter and stored at 4° C. until used.
(§3) The MIC assay method employed automated liquid handlers to conduct serial dilutions and liquid transfers. Automated liquid handlers included the Multidrop 384 (Labsystems, Helsinki, Finland), Biomek 2000 and Biomek FX (Beckman Coulter, Fullerton Calif.). The wells in columns 2-12 in standard 96-well microdilution plates (Costar 3795) were filled with 150 μl of the correct diluent (50% DMSO for investigational compounds, 100% DMSO for comparator compounds). These would become the mother plates' from which ‘daughter’ or test plates would be prepared. Stocks were diluted to 40× the desired top concentration in the test plates in the indicated solvent, and 300 μL of the 40× stock was dispensed into the appropriate well in Column 1 of the mother plates. The Biomek 2000 was used to make serial serial 2-fold dilutions through Column 11 in the “mother plate”. The wells of Column 12 contained no drug and served as the organism growth control wells.
(§4) The daughter plates were loaded with 185 μL per well of RPMI described above using the Multidrop 384. The daughter plates were prepared using the Biomek FX which transferred 5 μL of drug solution from each well of a mother plate to the corresponding well of the daughter plate in a single step.
(§5) A standardized inoculum of each organism was prepared. For Candida, colonies were picked from the streak plate and a suspension was prepared in RPMI medium equal to a 0.5 McFarland standard, then diluted 1:100 in RPMI and transferred to compartments of sterile reservoirs divided by length (Beckman Coulter). For the Aspergillus isolates, previously prepared and quantitated suspensions were used to make dilutions in RPMI to reach 20× the final concentration. These dilutions were also transferred to compartments of sterile reservoirs divided by length (Beckman Coulter). The final concentration of the Aspergillus isolates was approximately 0.2-2.5×10^4 CFU/mL.
(§6) The Biomek 2000 was used to inoculate the plates. Daughter plates were placed on the Biomek 2000 work surface reversed so that inoculation took place from low to high drug concentration. The Biomek 2000 delivered 10 μL of standardized inoculum into each well. Thus, the wells of the daughter plates ultimately contained 185 μL of RPMI, 5 μL of drug solution, and 10 μL of inoculum. The final concentration of DMSO in the test well was 2.5% for the evaluated comparators and 1.25% for the investigational agents.
(§7) Plates were stacked 3 high, covered with a lid on the top plate, placed into plastic bags, and incubated at 35° C. for approximately 24-48 hr prior to reading. Plates were read when inoculum was confluent in growth wells. Plates were viewed from the bottom using a plate viewer. […] MICs were read where visible growth of the organism was inhibited. MECs were read where the growth shifted to a small, rounded, compact hyphal form as compared to the hyphal growth seen in the growth control well.

C. albicans ATCC 90028 = assay: microbe, parasite or virus in culture
Description: as §1, §2, §3, §4, §5, §6, §7

[1] = test system: C. parapsilosis ATCC 22019; assay: microbe, parasite or virus in culture
Description: as §1, §2, §3, §4, §5, §6, §7

C. glabrata ATCC 90030 = assay: microbe, parasite or virus in culture
Description: as §1, §2, §3, §4, §5, §6, §7

A. fumigatus MYA-3626 = assay: MEC assay (Example 31); conditions: RPMI pH 7.0, 35° C., 24-48 hr
Description: as §1, §2, §3, §4, §5, §6, §7

A. fumigatus MYA-4609 = assay: MEC assay (Example 31); conditions: RPMI pH 7.0, 35° C., 24-48 hr
Description: as §1, §2, §3, §4, §5, §6, §7

A. fumigatus ATCC 13073 = assay: MEC assay (Example 31); conditions: RPMI pH 7.0, 35° C., 24-48 hr
Description: as §1, §2, §3, §4, §5, §6, §7

A. flavus MX 5948 = assay: MEC assay (Example 31); conditions: RPMI pH 7.0, 35° C., 24-48 hr
Description: as §1, §2, §3, §4, §5, §6, §7

A. fumigatus MX 5944 = assay: MEC assay (Example 31); conditions: RPMI pH 7.0, 35° C., 24-48 hr
Description: as §1, §2, §3, §4, §5, §6, §7

[2] = test system: Neutrophils purified from human peripheral blood; assay: Human Neutrophil Transwell Migration Assay; conditions: 37° C., 45 minutes, % of the maximum migration possible
Description: Neutrophils were purified from human peripheral blood utilizing PolymorphPrep. Red blood cells were lysed with a lysis buffer and the cells were washed, counted and resuspended in assay buffer. Neutrophils (approximately 50,000 to 100,000 in number) were placed over 5-micon pore sized transwell plates in 24-well format with test compounds in the bottom chamber of each well. A negative control of media alone in the bottom chamber was set up in triplicate. A positive control where the neutrophils were added directly to the bottom well was set up in triplicate.
The plates were incubated at 37° C. for 45 minutes to allow for migration. After this time, migration was confirmed visually and then an aliquot (⅙^th of total cells) from each well was taken for ATP detection via luminescence with ATPlite (PerkinElmer) to quantify the number of migrated cells. The averaged reading for random migration detected in the negative control was subtracted from all readings to obtain the corrected migration number. These numbers were then divided by the averaged reading from the positive control to get the % Neutrophil Migration of the maximum migration possible.

Row | SMILES | MEC (A. fumigatus MYA-3626) | MEC (A. fumigatus MYA-4609) [µg/mL] | MEC (A. fumigatus ATCC 13073) | MEC (A. flavus MX 5948) [µg/mL] | MEC (A. fumigatus MX 5944) [µg/mL] | % Neutrophil Migration ([2]; conc 0.001 μg/mL) [%] | % Neutrophil Migration ([2]; conc 0.01 μg/mL) [%] | % Neutrophil Migration ([2]; conc 0.1 μg/mL) [%] | % Neutrophil Migration ([2]; conc 1 μg/mL) [%] | % Neutrophil Migration ([2]; conc 10 μg/mL) [%] | MIC (C. krusei ATCC 14243; ATCC 14243, pH 7) [µg/mL] | MIC (C. albicans ATCC 90028; ATCC 90028, pH 7) [µg/mL] | MIC ([1]; ATCC 22019, pH 7) [µg/mL] | MIC (C. glabrata ATCC 90030; ATCC 90030, pH 7) [µg/mL] | further results
1 | CC[C@H](C)C[C@H](C)CCCCCCCCC(=O)N[C@H]1C[C@@H](O)[C@@H](NCCNC(=O)C(Cc2ccccc2)NC(=O)C(CC(C)C)NC(=O)C(CCSC)NC(=O)Nc2ccc(Cl)cc2)NC(=O)[C@@H]2[C@@H](O)CCN2C(=O)[C@H]([C@H](O)CCN)NC(=O)[C@H]([C@H](O)[C@@H](O)c2ccc(O)cc2)NC(=O)[C@@H]2C[C@@H](O)CN2C(=O)[C@H]([C@@H](C)O)NC1=O (single isomer, unassigned) [Compound 13b] | 0.25 µg/mL | 0.12 | 0.25 µg/mL | 0.12 | 0.25 | 6.2 | 26.1 | 11.5 | −8.5 | −7.6 | – | – | – | – | MIC (C. krusei ATCC 14243; C. krusei ATCC 14243, RPMI pH 7.0, 35° C., 24-48 hr): 16 µg/mL (≈ 9.77 µM); MIC (C. albicans ATCC 90028; C. albicans ATCC 90028, RPMI pH 7.0, 35° C., 24-48 hr): 2 µg/mL (≈ 1.22 µM); MIC ([1]; C. parapsilosis ATCC 22019, RPMI pH 7.0, 35° C., 24-48 hr): 32 µg/mL (≈ 19.5 µM); MIC (C. glabrata ATCC 90030; C. glabrata ATCC 90030, RPMI pH 7.0, 35° C., 24-48 hr): 8 µg/mL (≈ 4.88 µM)
2 | CC[C@H](C)C[C@H](C)CCCCCCCCC(=O)N[C@H]1C[C@@H](O)[C@@H](NCCNC(=O)[C@H](Cc2ccccc2)NC(=O)[C@H](CC(C)C)NC(=O)[C@H](CCSC)NC=O)NC(=O)[C@@H]2[C@@H](O)CCN2C(=O)[C@H]([C@H](O)CCN)NC(=O)[C@H]([C@H](O)[C@@H](O)c2ccc(O)cc2)NC(=O)[C@@H]2C[C@@H](O)CN2C(=O)[C@H]([C@@H](C)O)NC1=O [Compound 2] | 0.25-1^ μg/mL | 0.12 to 1 | 0.12 to 2 µg/mL | 0.06 to 1 | 0.12 to 1 | −5.3 | 28.5 | 97.5 | 30.6 | −11.0 | 8 to 16 | 2 (≈ 1.32 µM) | 16 (≈ 10.6 µM) | 4 (≈ 2.64 µM) | –
3 | CC[C@H](C)C[C@H](C)CCCCCCCCC(=O)N[C@H]1C[C@@H](O)[C@@H](NCCN)NC(=O)[C@@H]2[C@@H](O)CCN2C(=O)[C@H]([C@H](O)CCNC(=O)CCNC(=O)[C@H](Cc2ccccc2)NC(=O)[C@H](CC(C)C)NC(=O)[C@H](CCSC)NC=O)NC(=O)[C@H]([C@H](O)[C@@H](O)c2ccc(O)cc2)NC(=O)[C@@H]2C[C@@H](O)CN2C(=O)[C@H]([C@@H](C)O)NC1=O [Compound 3] | 1 µg/mL | 1 | 1 µg/mL | 1 | 1 | 1.5 | 109.3 | 66.2 | −9.7 | −11.0 | 16 (≈ 10.1 µM) | 2 (≈ 1.26 µM) | >32 | 16 (≈ 10.1 µM) | –
4 | CC[C@H](C)C[C@H](C)CCCCCCCCC(=O)N[C@H]1C[C@@H](O)[C@@H](NCCNC(=O)CCNC(=O)[C@H](Cc2ccccc2)NC(=O)[C@H](CC(C)C)NC(=O)[C@H](CCSC)NC=O)NC(=O)[C@@H]2[C@@H](O)CCN2C(=O)[C@H]([C@H](O)CCN)NC(=O)[C@H]([C@H](O)[C@@H](O)c2ccc(O)cc2)NC(=O)[C@@H]2C[C@@H](O)CN2C(=O)[C@H]([C@@H](C)O)NC1=O [Compound 4] | 2 µg/mL | 1 | 1 µg/mL | 1 | 1 | 3.8 | 88.0 | 15.1 | −9.8 | −11.2 | 8 (≈ 5.05 µM) | 2 (≈ 1.26 µM) | 32 (≈ 20.2 µM) | 4 (≈ 2.53 µM) | –
5 | CC[C@H](C)C[C@H](C)CCCCCCCCC(=O)N[C@H]1C[C@@H](O)[C@@H](NCCN)NC(=O)[C@@H]2[C@@H](O)CCN2C(=O)[C@H]([C@H](O)CCNC(=O)[C@H](CCCCN)NC(=O)[C@H](Cc2ccccc2)NC(=O)[C@H](CC(C)C)NC(=O)[C@H](CCSC)NC=O)NC(=O)[C@H]([C@H](O)[C@@H](O)c2ccc(O)cc2)NC(=O)[C@@H]2C[C@@H](O)CN2C(=O)[C@H]([C@@H](C)O)NC1=O [Compound 14] | 0.25 µg/mL | 0.12 | 0.25 µg/mL | 0.12 | 0.12 | 0.9 | 1.9 | 14.8 | 21.4 | −9.0 | 16 (≈ 9.75 µM) | 2 (≈ 1.22 µM) | 16 (≈ 9.75 µM) | 16 (≈ 9.75 µM) | –
6 | C[C@@H](c1ncncc1F)[C@](O)(Cn1cncn1)c1ccc(F)cc1F [voriconazole, reference compound] | 0.12 to 0.5 µg/mL | 0.25 to 0.5 | 0.012-0.5^ μg/mL | 0.25 to 2 | 0.12 to 0.25 | – | – | – | – | – | – | – | – | – | MIC (C. krusei ATCC 14243; Pichia kudriavzevii, ATCC14243, C. krusei ATCC 14243, RPMI pH 7.0, 35° C., 24-48 hr, read-out: MIC): 0.25 to 1 µg/mL (≈ 0.716 to 2.86 µM); MIC (C. albicans ATCC 90028; Candida albicans, ATCC90028, C. albicans ATCC 90028, RPMI pH 7.0, 35° C., 24-48 hr, read-out: MIC): 0.06 to 0.5 µg/mL (≈ 0.172 to 1.43 µM); MIC ([1]; Lodderomyces parapsilosis, ATCC22019, C. parapsilosis ATCC 22019, RPMI pH 7.0, 35° C., 24-48 hr, read-out: MIC): 0.03 to 0.06 µg/mL (≈ 0.0859 to 0.172 µM); MIC (C. glabrata ATCC 90030; Nakaseomyces glabratus, ATCC90030, C. glabrata ATCC 90030, RPMI pH 7.0, 35° C., 24-48 hr, read-out: MIC): 0.12 to 0.25 µg/mL (≈ 0.344 to 0.716 µM)
